For data set [1], the system named is NCI-60 cancer cell line panel. Further details: method as in PMID 33970717. As to conditions: earlier study; read-out: GI50 range against NCI-60; cited from earlier work.
For the next data set, the system named is chorioallantoic membrane. Briefly: HET-CAM irritation assay. The conditions noted are these: in vivo. An excerpt: HET-CAM assay was used in order to assess the toxicity of compounds 6 and 7 (Figure 16); the procedure is a low-cost, unique model in biomedical research that allows the testing of the irritation potency of chemical compounds while simultaneously avoiding in vivo experiments. […] The Luepke scale was used to establish the irritation score: 0–0.9 indicates non-irritant, 1–4.9 indicates weakly irritant, 5–8.9 indicates moderately irritant, and 9–21 means strongly irritant.
Compounds 6 and 7 were also evaluated in terms of biocompatibility on mucosal tissues by using the in vivo Hen’s Egg Chorioallantoic Membrane Test (HET-CAM assay). The assay assesses a potential irritant effect on the vascular plexus of the chorioallantoic membrane. The HET-CAM method was carried out following ICCVAM recommendations published in November 2016 in Appendix G and adapted to our laboratory conditions. Thus, 300 µL of control or test solution, respectively, was applied on CAM and the alterations induced at the CAM level were monitored by means of stereomicroscopy (Discovery 8 Stereomicroscope, Zeiss), registering significant images (Axio CAM 105 color, Zeiss), before the application and after 5 min contact with the samples. All images were processed using Zeiss ZEN software, Gimp 2.8 and ImageJ software. Negative control was represented by distilled water and solvent control DMSO 0.5%, while the positive control by the sodium lauryl sulphate (SLS) 0.5% in distillate water. The test substances were tested in concentrations of 1 µM. The observation time of the produced reactions was 5 min (300 s) and the time, at which the occurrence of a particular reaction took place was recorded in seconds. Finally, the following reactions were monitored: hemorrhage—H (blood vessel bleeding), vascular lysis —L (disintegration of blood vessels), and coagulation —C (intra or extra- vascular protein denaturizing). A variety of analysis methods may be used to assess irritancy potential of test substances. One analysis method that has been used extensively used is an irritation score (IS) calculated according to the following formula: IS=5×301−SecH/300+[…]/300+9×301−SecC/300 where H = hemorrhage; L = vessel lysis; C = coagulation; Hemorrhage time (Sec H) = onset of hemorrhage reactions on CAM (in sec); Lysis time (Sec L) = onset of vessel lysis on CAM (in sec); Coagulation time (Sec C) = onset of coagulation formation on CAM (in sec). The formula comprises a factor indicating the impact of the observed effect on vascular damage, e.g., coagulation has the highest impact expressed by the multiplication factor 9. The IS values range on a scale between 0 and 21.

Details of data set [2]: method as in PMID 11527742, doi:10.1007/s00044-018-2189-6, PMID 32956968. As to conditions: literature data; cited from earlier work.

The text below walks through data of paper PMC8509773, “3-Pyridinylidene Derivatives of Chemically Modified Lupane and Ursane Triterpenes as Promising Anticancer Agents by Targeting Apoptosis” (International Journal of Molecular Sciences, 2021).

One may read the GI50 as the concentration at which growth is held to half of that of the control. As for “2,30-bis-(3-pyridinylidene)-platanic acid”, the GI50 in data set [1] was 1000 to 2000 nM. Consider 3-pyridinylidene-messagenin, for which the GI50 in data set [1] is 1000 to 2000 nM. On to `CCCCCCCCCCCCOS(=O)(=O)[O-].[Na+]` [SLS 0.5%, sodium laurylsulphate, reference compound], for which the “Type of Effect” value in the data set on chorioallantoic membrane is on record as “Strong irritant”. As for `CC(=O)[C@@H]1CC[C@]2(C(=O)O)CC[C@]3(C)[C@H](CC[C@@H]4[C@@]5(C)CC[C@H](O)C(C)(C)[C@@H]5CC[C@]43C)[C@@H]12` [platanic acid], the GI50 in data set [2] was > 50 µM.
